# System: Crabgrasses
# Assay: Herbicidal effect of Karmex D (DCMU) herbicide with or without compound 6 (Example 6)
# Format: in vivo, crabgrass
# Conditions: compound 6, where added, 2000 ppm in the diluted solution
# Protocol: Crabgrasses (30 crabgrasses per pot) which were in a trifoliate stage were treated with the above herbicide in a predetermined concentration. 7 days after the treatment, the weight of survival at the aerical part and the percentage herbicidal effect relative to the untreated section (%) were calculated. 50% herbicidal concentration was also determined.
# The above-mentioned preparation was diluted with water to have a predetermined concentration.
smiles,measurement,setting,value
CCCCCCCCC(CCCCCC)C[N+](C)(C)Cc1ccc(Cl)cc1 (centres unmarked) [compound 6],herbicidal effect (%),active ingredient (DCMU) concn. 125 ppm,39%
same,herbicidal effect (%),active ingredient (DCMU) concn. 250 ppm,55%
same,herbicidal effect (%),active ingredient (DCMU) concn. 500 ppm,77%
same,herbicidal effect (%),active ingredient (DCMU) concn. 1000 ppm,91%
same,herbicidal effect (%),active ingredient (DCMU) concn. 2000 ppm,100%

# Reference: patent US4888049A, “Synergist for biocide” (Kao Corporation, priority 1986, dated 1989)
